In brackets after ≈: the same amount, converted by molar mass. Like-named read-outs stand apart in the source and are kept apart here.
Assays:
[1] = Pharmacokinetics (PK) in mouse, I.V. and oral; type: in vivo, CD-1 mice
Protocol: PK tests were performed with CD-1 mice, using 4 animals per molecule tested, 2 animals for pharmacokinetic analysis by intravenous (IV) administration and 2 animals for oral administration. The treatment was carried out in a single dose: I.V. group with dose of 1 mg/kg and Oral group with dose of 10 mg/kg. […] Blood collection was performed after euthanasia at 08 defined time points and at 24 hours post-dose. The pharmacokinetic analysis parameters detected for Group IV were: half-life (t½), drug concentration at time zero (C0), last measurable plasma concentration (AUClast), area under the plasma concentration curve extrapolation percentage (AUC % ext), area under the plasma concentration curve extrapolation to infinity (AUCinf), volume of distribution (Vz), steady state volume of distribution (Vss), clearance (CL) and mean residence time (MRT). The parameters evaluated for the Oral group were: bioavailability (F %), maximum concentration reached (Cmax), time to reach maximum plasma concentration (Tmax), last measurable plasma concentration (AUClast), area under the plasma concentration curve extrapolation percentage (AUC % ext), area under the plasma concentration curve extrapolation to infinity (AUCinf), area under the plasma concentration curve extrapolation to infinity versus dose (AUCinf/Dose), half-Life (t½), and mean residence time (MRT).

[2] = Water solubility (shake-flask, PBS pH 7.4); type: physicochemical; conditions: aqueous buffer, thermodynamic from solid
Protocol: In addition, chromatographic purity (%) was defined as the calculation of the main peak area relative to the calculation of the peak area integrate of the standard HPLC calibration chromatogram. A standard calibration chromatogram was then generated for each compound tested along with a UV/VIS spectrum with maximal labeled absorbance. The shake-flash technique was used with constant stirring during incubation to keep a uniform medium for 24 hours in PBS at pH 7.4.

[3] = Permeability in Caco-2 cells; type: in vitro ADME; conditions: human, Caco-2, pH 6.5, 37° C.
Protocol: Permeability tests were performed using Caco-2 cells, a colorectal epithelial adenocarcinoma cell line. These cells resemble intestinal epithelial cells in some aspects, such as the formation of a polarized monolayer, a well-defined brush border on the apical surface, and intercellular junctions.
The test is performed in both directions [apical to basolateral (A-B) and basolateral to apical (B-A)] through the cell monolayer, allowing an efflux ratio that provides an indicator as to whether a compound undergoes active efflux. Particle detection was performed with HPLC-MS/MS (mass spectrometry) according to the calculation of the peak area of the result. MS/MS was performed by combining two mass detectors in a single instrument.
A-B permeability was performed at pH 6.5/7.4 with incubation time of 0 and 60 minutes at 37° C. and B-A permeability was performed at pH 6.5/7.4 with incubation time of 0 and 40 minutes at 37° C.

[4] = CD-1, plasma, intravenous 1 mg/kg

C0 [1, 4]: 811 ng/mL
clearance [1, 4]: 116 mL/min/kg
half-life [1, 4]: 8.94 min
AUC(0-t) ([1]; CD-1, plasma, oral 10 mg/kg): 30.3 ng·h/mL
bioavailability ([1]; CD-1, plasma, oral 10 mg/kg vs intravenous 1 mg/kg, read-out: F (%) bioavailability): 2.42%
Cmax ([1]; CD-1, plasma, oral 10 mg/kg, read-out: Cmax): 21.9 ng/mL
Tmax ([1]; CD-1, plasma, oral 10 mg/kg, read-out: Tmax): 15 min
Cmax ([1]; oral 10 mg/kg): 21.9 ng/mL
Tmax ([1]; oral 10 mg/kg): 15 min
F (%) bioavailability ([1]; oral 10 mg/kg vs intravenous 1 mg/kg): 2.42%
solubility at 24 h [2]: 196 µM (≈ 47.7 µg/mL)
Papp A→B at 60 min ([3]; apical to basolateral, 60 min, read-out: Permeability A-B (pH 6.5/7.4)): 83.9 ×10⁻⁶ cm/s
Papp B→A at 40 min ([3]; basolateral to apical, 40 min, read-out: Permeability B-A (pH 6.5/7.4)): 48.5 ×10⁻⁶ cm/s
Compound: COc1ccc2cccc(CCNC(C)=O)c2c1 [IA2-76, agomelatine, reference compound]

Reference: patent US10781182B2, “Compounds, process for obtaining the compounds, pharmaceutical composition, use of the compounds and method for treating psychiatric disorders and/or sleep disorders” (ACHÉ LABORATÓRIOS FARMACÊUTICOS S.A., priority 2016, dated 2020)
